Data reported in patent US11000056B2, “Bioactive serum fraction from achachairu (Garcinia humilis) which is free of benzophenone and proteins” (ISP Investments LLC, priority 2015, dated 2021).

Experiments:
[1] = system: endocrine (androgenic/estrogenic) activity; conditions: cited from earlier work
[2] = laboratory animals; cited from earlier work
[3] = oral and dermal routes; cited from earlier work
IL-18 = experiment: IL18/Baseline, skin sensitization potential in HEK; type: cell-based, human; conditions: HEK cultures, positive control
Experimental: It is possible for a test article to not be cytotoxic, and yet be unsafe due to provoking an allergic reaction upon skin contact. Typically, initial exposure to an allergen sensitizes the immune system, and following exposures cause an allergic response. […] We therefore evaluated IL-18 production in HEK treated with test articles to determine their sensitization potential.
Normal human adult epidermal keratinocytes (HEK) were cultured as described in Example 6 above. […] The cell lysates were collected, and IL-18 was quantified using Human IL-18 ELISA Kit (Catalog #7620, produced by MBL International Co., Woburn, Mass., USA). […] Fold changes of IL-18 levels between test articles and respective vehicle controls were calculated and compared to pPD (positive control). […]

## COc1ccc(C(=O)c2ccccc2)c(O)c1 [BP-3, Benzophenone-3]
[1]
  Anti-estrogenic activity (in words): anti-estrogenic activity
[1]; receptor binding assay
  Anti-androgenic activity (in words): strong anti-androgenic
  Estrogenic activity (in words): weak estrogenic
[2]
  Hormonal activity (in words): weak hormonal activity
[3]
  Absorption (in words): rapidly absorbed via oral and dermal routes

## Nc1ccc(N)cc1 [benchmark sensitizer, para-phenylenediamine]
IL-18
  IL-18 induction compared to vehicle control (in words): significantly induced IL-18
